Consider 19 sequences from US7906620B2, “Tumor associated antigen, peptides thereof, and use of same as anti-tumor vaccines” (Yeda Research and Development Co. Ltd., priority 2002, dated 2011).

The test deals with peptide loaded on labeled RMA-S/HHD. Nature of the test: Immunogenicity of peptides in HHD mice: vaccination with peptide-loaded RMA-S/HHD/B7.1, cytolytic assay on peptide-loaded targets. The format is in vivo. The note with it: for Score: immunogenic score: ratio of specific lysis, specific peptide vs tyrosinase peptide loaded on RMA-S/HHD, average of two experiments, positive above 125%; for antigenic / immunogenic in HHD mice: mouse, in vivo. The method, then: FIG. 4 is a graph of the results of in vitro cytolytic assays. Seven peptides are immunogenic. Peptides were loaded on RMA-S/HHD/B7.1, washed and irradiated. HHD mice were immunized three times as described in the materials and methods section in Example 1. In vitro cytolytic assays were performed on the relevant peptide as target and on an irrelevant peptide. The score was deduced from the ratio of the specific lysis that were obtained. The positive peptides (above 125%) are marked by arrows. Peptides 1-6, 3-5 and 3-7 are derived from “Human 1-8D gene”.
Vaccination. HHD mice were immunized i.p. 3 times at 7-day intervals with 2×10^6 irradiated (5000 rad) tumor cells, or irradiated peptide-loaded RMA-S/HHD/B7.1 transfectants. Spleens were removed on day 10 after the last immunization, and splenocytes were restimulated in vitro, either with irradiated tumor cells or with one third of the lymphocytes pre-pulsed with 100 μM synthetic peptides in opti-MEM (Life Technologies) for 2 hr at 37° C., 5% CO2. Restimulated lymphocytes were cultured in RPMI-HEPES medium containing 10% FCS, 2 mM glutamine, combined antibiotics, 1 mM sodium pyruvate, 25 mM HEPES, 5×10^−5M PME and 1% NEAA for 5 days. Viable cells (effectors) were separated by Lympholyte-M (Cedarlane, Hornby, Canada) gradient, resuspended and admixed at different ratios with 5,000 ^35S-methionine-labeled target cells. Cytolytic assays were carried out as described previously in Carmon et al., 2000. Extracts of tumor peptides or normal colon peptides were prepared from a pool of 6 post-surgical colon carcinoma specimens as described before Carmon et al., 2000.
The antigenic peptides were tested for their specific immunogenicity in HHD mice. HHD mice were vaccinated with RMA-S/HHD/B7.1 cells loaded with each of the peptides (listed in Table 3), their spleens were removed, and resensitized in vitro with synthetic peptides for four days. On the fifth day, a cytolytic assay was performed on two targets, either the peptide itself loaded on labeled RMA-S/HHD or the tyrosinase peptide as a negative control. The ratio of specific lysis between specific and tyrosinase peptides was defined as “immunogenic score”. This experiment was repeated twice and the average score of each of the antigenic peptides is specified (Table 3 and FIG. 4). The horizontal line in FIG. 4 represents the limit of 95% significance as defined by assuming normal distribution of scores.

As for “ALGFYPAEI (listed as Homo sapiens) [Peptide 3-3]”, the Score is 93.6. For “ALPDETEVV (listed as Homo sapiens) [Peptide 2-1, Human osteonectin 23-31]”, the Score came to 115.0.

For the sequence “ALRGHSHFV (listed as Homo sapiens) [Peptide 1-8, Human MHC protein homologous to chicken B complex 58-66]”, the Score worked out at 106.7.

Take “DLQETLVKI (listed as Homo sapiens) [Peptide 3-6, Human chaperonin like protein 316-324]”: the Score was found to be 84.6.

With “FELAAESDV (listed as Homo sapiens) [Peptide 1-4, Transforming growth factor beta induced gene 380-338]”, the Score is on record as 83.3.

On to “GQQSTVSDV (listed as Homo sapiens) [Peptide 1-5]”, for which the Score came to 125.0.

Regarding “IPMGKSMLV (listed as Homo sapiens) [Peptide 2-2, Insulin like growth factor II 3-11]”, the Score stood at 9.5.

In the case of “IQQYGHQEV (listed as Homo sapiens) [Peptide 1-7]”, the Score was 94.6. As to “IVDDITYNV (listed as Homo sapiens) [Peptide 1-11]”, the Score is given as 126.8; the “antigenic / immunogenic in HHD mice” value is “antigenic and immunogenic”. On to “KIEDNNTLV (listed as Homo sapiens) [Peptide 2-3, Human ribosomal protein L23a mRNA 89-97]”, for which the Score was 150.0; the “antigenic / immunogenic in HHD mice” value was “antigenic and immunogenic”. As for “LLVIIPVLV (listed as Homo sapiens) [Peptide 1-2, Human 1-8D gene from interferon inducible gene 119-127]”, the Score is listed as 108.3. As to “MLTINGKAI (listed as Homo sapiens) [Peptide 3-1, Transforming growth factor beta induced gene 343-351]”, the Score is 147.1; the “antigenic / immunogenic in HHD mice” value was “antigenic and immunogenic”. Regarding “SIAEFFSDI (listed as Homo sapiens) [Peptide 3-2, Human TB2 gene 105-113]”, the Score turned out to be 143.2; the “antigenic / immunogenic in HHD mice” value was “antigenic and immunogenic”. “TILTAVLLV (listed as Homo sapiens) [Peptide 1-10, Human defensin 6 5-13]”: the Score is reported as 97.5. Turning to “TLQLSRAPV (listed as Homo sapiens) [Peptide 1-12, Human mRNA for dipeptidase 223-231]”, the Score came out at 107.9. “VIATNILLV (listed as Homo sapiens) [Peptide 1-9, Human chaperonin-like protein 368-346]”: the Score is listed as 69.7.

With “VLYDELKKV (listed as Homo sapiens) [Peptide 1-1, Human ADP/ATP translocase 253-261]”, the Score was found to be 121.7.

In the case of “VQPQSPVAV (listed as Homo sapiens) [Peptide 1-3]”, the Score came out at 112.0. Take “WVVYGVFSI (listed as Homo sapiens) [Peptide 3-4, Human TB2 gene 98-106]”: the Score amounted to 90.9.
